Like-named read-outs stand apart in the source and are kept apart here.
Experiments:
[1] = target: neuraminidase of A/Washington/10/2008, A (H1N1) Seasonal, WT (Influenza A virus, UniProt G3LYQ1); assay type: biochemical; conditions: read-out: Mean IC50 ± SD
[2] = target: neuraminidase of A/Washington/01/2007, A (H3N2) Seasonal, WT (Influenza A virus, UniProt A7UPN3); assay: biochemical
[3] = target: neuraminidase of B/Memphis/20/1996, B Seasonal, WT (Influenza B virus, UniProt C7FPS7); assay type: biochemical; conditions: read-out: Mean IC50 ± SD
[4] = target: neuraminidase of A/California/07/2009, H1N1 Pandemic, WT (Influenza A virus (A/California/07/2009(H1N1)), UniProt C7FH46); assay type: biochemical, 2009 pandemic H1N1 influenza virus; conditions: read-out: Mean IC50 ± SD
[5] = target: neuraminidase of seasonal influenza A(H1N1) H275 wildtype virus isolates (Influenza A virus, UniProt A8C8J7); assay type: biochemical
[6] = target: neuraminidase of seasonal influenza A(H3N2) virus isolates (Influenza A virus, UniProt X2GK54); assay type: biochemical
[7] = target: neuraminidase of seasonal influenza B virus isolates (Influenza B virus, UniProt U5XBU0); assay type: biochemical
[8] = target: neuraminidase of 2009 pandemic H1N1 H275 wildtype virus isolates (Influenza A virus, UniProt C3W5S3); assay type: biochemical, 2009 pandemic H1N1 influenza virus
[9] = target: neuraminidase of Pandemic H1N1 virus isolates (Influenza A virus, UniProt C7FH46); assay type: biochemical, 2009 pandemic H1N1 influenza virus
[10] = target: neuraminidase of A/England/412/2008 (H1N1), H275H/Y mix; assay type: biochemical, influenza A(H1N1) virus
[11] = tested on: neuraminidase of seasonal influenza A(H1N1) viruses; assay type: biochemical, influenza A(H1N1) virus
[12] = tested on: neuraminidase of B/New Jersey/02/2009; assay type: biochemical, influenza B virus
[13] = tested on: neuraminidase of B/Okinawa/10/2009; assay type: biochemical, influenza B virus
[14] = read-out: IC50 Statistical Cutoff (X0.75 + 3IQR)
[15] = read-out: IC50 X0.75 (75th Percentile)

CCC(CC)[C@H](NC(C)=O)[C@@H]1[C@H](O)[C@@H](C(=O)O)C[C@H]1N=C(N)N [Peramivir, peramivir]
IC50 [1]: 0.09 nM | IC50 ([2]; read-out: Mean IC50 ± SD): 0.12 nM | IC50 [3]: 0.31 nM | IC50 [4]: 0.06 nM | IC50 ([5]; read-out: IC50 Mean (±SD)): 0.1 nM | IC50 ([5]; read-out: IC50 Median): 0.1 nM | IC50 ([5]; read-out: IC50 Range): 0.05 to 0.17 nM | IC50 [5, 14]: 0.28 nM | IC50 [5, 15]: 0.13 nM | IC50 ([6]; read-out: IC50 Mean (±SD)): 0.17 ± 0.1 nM | IC50 ([6]; read-out: IC50 Median): 0.14 nM | IC50 ([6]; read-out: IC50 Range): 0.05 to 0.94 nM | IC50 [6, 14]: 0.4 nM | IC50 [6, 15]: 0.19 nM | susceptibility in NI assay [7]: sensitive | IC50 ([7]; read-out: IC50 Mean (±SD)): 0.56 nM | IC50 ([7]; read-out: IC50 Median): 0.56 nM | IC50 ([7]; read-out: IC50 Range): 0.24 to 1.1 nM | IC50 [7, 14]: 1.37 nM | IC50 [7, 15]: 0.68 nM | IC50 ([8]; read-out: IC50 Mean (±SD)): 0.08 ± 0.04 nM | IC50 ([8]; read-out: IC50 Median): 0.07 nM | IC50 ([8]; read-out: IC50 Range): 0.03 to 0.35 nM | IC50 [8, 14]: 0.22 nM | IC50 [8, 15]: 0.1 nM | susceptibility in NI assay [9]: sensitive | IC50 [10]: 0.51 nM

CC(=O)N[C@H]1[C@H]([C@H](O)[C@H](O)CO)OC(C(=O)O)=C[C@@H]1N=C(N)N [Zanamivir, zanamivir]
IC50 [2]: 0.47 nM | IC50 [4]: 0.26 nM | susceptibility in NI assay [6]: sensitive | susceptibility in NI assay [9]: sensitive | susceptibility in NI assay [11]: sensitive | susceptibility in NI assay [12]: reduced susceptibility | susceptibility in NI assay [13]: reduced susceptibility
